Laboratory results taken from patent US8486374B2, “Hydrophilic, non-aqueous pharmaceutical carriers and compositions and uses” (Foamix Ltd., priority 2004, dated 2013).
Where a name gives a salt, the structure may show the parent alone.

Legend:
[1] = anti-inflammatory steroids at typical concentration in topical products (triamcinolone acetonide 0.025%-0.1% medium, 0.5% high); cited from earlier work
[2] = Foam appearance (color, odor, form); format: physicochemical; design: key to ODOR: No odor (N.O.); key to COLOR: white (W)
[3] = Shakability of the composition; format: physicochemical
Text: ‘Shakability’ means that the composition contains some or sufficient flow to allow the composition to be mixed or remixed on shaking. That is, it has fluid or semi fluid properties. A breakable foam is that is thermally stable, yet breaks under sheer force.
‘Shakability’ means that the composition contains some or sufficient flow to allow the composition to be mixed or remixed on shaking. That is, it has fluid or semi fluid properties. In some very limited cases it may still be possible to have a foamable composition which is flowable but not apparently shakable.

[4] = Chemical stability: amount of active agent in foam by HPLC on storage; format: physicochemical
Method: The amount of active agent present is analyzed in foam expelled from various pressurized canisters containing foam formulations using HPLC. Analysis is carried out at zero time and at appropriate time intervals thereafter. The canisters are stored in controlled temperature incubators at 5° C., at 25° C., at, 40° C. and at 50° C. At appropriate time intervals canisters are removed and the amount of active agent in the foam sample is measured. […] All samples were stored at 50° C. for 4 weeks, in order to assess their stability. The following table provides the results of this short-term stability study, which indicated high compatibility between the polyol composition and the steroid drugs, which are known to be temperature-sensitive.

[5] = Predicted physical characteristics of the resultant foam after adding an active agent; format: physicochemical; settings: predicted on adding the active (BMV […] w/w; estradiol hemihydrate about 0.0051% w/w) with modulating agent to the carrier of the example at the place
[6] = active agent in stock of PEG-400 97.5, hydroxypropyl cellulose 0.5, steareth 2 2.0 (first Example 29)
[7] = active agent in stock of propylene glycol 46, glycerin 33, dimethyl isosorbide 15, stearyl alcohol, hydroxypropyl cellulose, laureth-4, GMS/PEG 100 stearate (Example 30)
[8] = active agent in stock of propylene glycol 91, stearyl alcohol 2, Klucel EF 2, laureth-4 2, glyceryl monostearate/PEG 100 stearate 3 (second Example 29)

COLOR [2, 6]	ODOR [2, 6]	COLOR [2, 8]	ODOR [2, 8]	SHAKABILITY [3, 6]	SHAKABILITY [3, 8]	Structure (SMILES)	Relative Potency [1]	further results
–	–	–	–	–	–	CC1(C)O[C@@H]2C[C@H]3[C@@H]4CCC5=CC(=O)CC[C@]5(C)[C@@]4(F)[C@@H](O)C[C@]3(C)[C@]2(C(=O)CCl)O1 [Halcinonide]	High Potency	–
–	–	–	–	–	–	CCC(=O)O[C@]1(C(=O)COC(C)=O)CC[C@H]2[C@@H]3C[C@H](C)C4=CC(=O)C=C[C@]4(C)[C@H]3[C@@H](O)C[C@@]21C [Methylprednisolone aceponate]	High Potency	–
–	–	–	–	–	–	CC(=O)OCC(=O)[C@@]12OC(C)(C)O[C@@H]1C[C@H]1[C@@H]3C[C@H](F)C4=CC(=O)C=C[C@]4(C)[C@@]3(F)[C@@H](O)C[C@@]12C [Flucinonide]	Medium Potency	–
W	N.O	W	N.O	Yes	Yes	O=C(O)CCCCCCCC(=O)O [Azelaic acid]	–	COLOR [2, 7]: W; ODOR [2, 7]: N.O; SHAKABILITY [3, 7]: Yes
W	N.O	W	N.O	Yes	Yes	C=C1/C(=C\C=C2/CCC[C@]3(C)[C@@H]([C@H](C)/C=C/[C@@H](O)C4CC4)CC[C@@H]23)C[C@@H](O)C[C@@H]1O [Calcipotriol hydrate]	–	COLOR [2, 7]: W; ODOR [2, 7]: N.O; SHAKABILITY [3, 7]: Yes
–	–	–	–	–	–	CCC(=O)OCC(=O)[C@@]1(OC(=O)CC)[C@@H](C)C[C@H]2[C@@H]3CCC4=CC(=O)C=C[C@]4(C)[C@@]3(F)[C@@H](O)C[C@@]21C [Bethamethasone Dipropionate]	High Potency	% Degradation after 4 weeks at 50° C. ([4]; 4 weeks): 0%
–	–	–	–	–	–	C[C@]12CC[C@@H]3c4ccc(O)cc4CC[C@H]3[C@@H]1CC[C@@H]2O [Estradiol hemihydrate]	–	effect on the physical characteristics of the resultant foam [5]: minimal effect
–	–	–	–	–	–	CCOC(=O)O[C@]1(C(=O)COC(=O)CC)CC[C@H]2[C@@H]3CCC4=CC(=O)C=C[C@]4(C)[C@H]3[C@@H](O)C[C@@]21C [Prednicarbate]	Medium Potency	–
W	N.O	W	N.O	Yes	Yes	CC(=O)N1CCN(c2ccc(OCC3COC(Cn4ccnc4)(c4ccc(Cl)cc4Cl)O3)cc2)CC1 (centres unmarked) [Ketoconazole]	–	–
–	–	–	–	–	–	C[C@@H]1C[C@H]2[C@@H]3CCC4=CC(=O)C=C[C@]4(C)[C@@]3(Cl)[C@@H](O)C[C@]2(C)[C@@]1(OC(=O)c1ccco1)C(=O)CCl [Mometasone furoate]	Medium Potency	–
W	N.O	W	N.O	Yes	Yes	CCCCC(=O)O[C@]1(C(=O)CO)[C@@H](C)C[C@H]2[C@@H]3CCC4=CC(=O)C=C[C@]4(C)[C@@]3(F)[C@@H](O)C[C@@]21C [Betamethasone 17 valerate micronized, Betamethasone 17 valerate]	Medium Potency	effect on the physical characteristics of the resultant foam [5]: minimal effect; COLOR [2, 7]: W; ODOR [2, 7]: N.O; SHAKABILITY [3, 7]: Yes
–	–	–	–	–	–	CCC(=O)OCC(=O)[C@@]1(OC(=O)CC)[C@H](C)C[C@H]2[C@H]3[C@H]([C@@H](O)C[C@@]21C)[C@@]1(C)C=CC(=O)C=C1C[C@H]3Cl [Alcometasone dipropionate]	Medium Potency	–
–	–	–	–	–	–	CC1(C)O[C@@H]2C[C@H]3[C@@H]4C[C@H](F)C5=CC(=O)C=C[C@]5(C)[C@@]4(F)[C@@H](O)C[C@]3(C)[C@]2(C(=O)CO)O1 [Fluocinolone Acetonide]	Medium Potency	–
W	N.O	W	N.O	Yes	Yes	Cc1cc(C2CCCCC2)n(O)c(=O)c1 [Ciclopiroxolamine]	–	COLOR [2, 7]: W; ODOR [2, 7]: N.O; SHAKABILITY [3, 7]: Yes
–	–	–	–	–	–	CC(=O)OCC(=O)[C@@]1(O)CC[C@H]2[C@@H]3CCC4=CC(=O)CC[C@]4(C)[C@H]3[C@@H](O)C[C@@]21C [Hydrocortison Acetate]	Low Potency	–
–	–	–	–	–	–	CCCC(=O)O[C@]1(C(=O)CCl)[C@H](C)C[C@@H]2[C@@H]3CCC4=CC(=O)C=C[C@]4(C)[C@]3(F)C(=O)C[C@@]21C [Clobetasone-17-butyrate]	Medium Potency	–
–	–	–	–	–	–	CC1(C)O[C@@H]2C[C@H]3[C@@H]4CCC5=CC(=O)C=C[C@]5(C)[C@H]4[C@@H](O)C[C@]3(C)[C@]2(C(=O)CO)O1 [Desonide]	Low Potency	–
–	–	–	–	–	–	C[C@]12CCC(=O)C=C1CC[C@@H]1[C@@H]2[C@@H](O)C[C@@]2(C)[C@H]1CC[C@]2(O)C(=O)CO [Hydrocortisone]	Low Potency	–
W	N.O	O.W	No	Yes	Yes	O=C(O)c1ccccc1O [Salicylic acid]	–	–
W	N.O	W	No	Yes	Yes	CN(C/C=C/C#CC(C)(C)C)Cc1cccc2ccccc12 [Terbinafine HCl]	–	–
–	–	–	–	–	–	CCC(=O)O[C@]1(C(=O)CCl)[C@@H](C)C[C@H]2[C@@H]3CCC4=CC(=O)C=C[C@]4(C)[C@@]3(F)[C@@H](O)C[C@@]21C [Clobetasol Propionate]	Highest Potency	–
Light	N.O	O.W	No	Yes	Yes	CN1C(C(=O)Nc2ccccn2)=C(O)c2ccccc2S1(=O)=O [Piroxicam]	–	–
–	–	–	–	–	–	CCCC(=O)O[C@]1(C(=O)CO)CC[C@H]2[C@@H]3CCC4=CC(=O)CC[C@]4(C)[C@H]3[C@@H](O)C[C@@]21C [Hydrocortison Butyrate]	–	% Degradation after 4 weeks at 50° C. ([4]; steroid in TECH-PG 032, stored at 50° C. for 4 weeks): 2.6%; % Degradation after 4 weeks at 50° C. ([4]; steroid in TECH-PG 033, stored at 50° C. for 4 weeks): 2.8%
–	–	–	–	–	–	C[C@H]1C[C@H]2[C@@H]3CCC4=CC(=O)C=C[C@]4(C)[C@@]3(F)[C@@H](O)C[C@]2(C)[C@@]1(OC(=O)c1ccccc1)C(=O)CO [Betamethasone-17-benzoate]	High Potency	–
W	N.O	W	N.O	Yes	Yes	O=C(OOC(=O)c1ccccc1)c1ccccc1 [Benzoyl peroxide]	–	COLOR [2, 7]: W; ODOR [2, 7]: N.O; SHAKABILITY [3, 7]: Yes

Structure (SMILES)	COLOR [2, 6]	ODOR [2, 6]	COLOR [2, 8]	ODOR [2, 8]	SHAKABILITY [3, 6]	SHAKABILITY [3, 8]	Relative Potency [1]	further results
CC1(C)C(C=C(Cl)Cl)C1C(=O)OCc1cccc(Oc2ccccc2)c1 (stereo not drawn) [Permethrin BPC (cis:trans 25:75), Permethrin]	W	N.O	O.W	No	Yes	Yes	–	–
Cn1c(=O)c2c(ncn2C)n(C)c1=O [Caffeine]	W	N.O	W	N.O	Yes	Yes	–	COLOR [2, 7]: W; ODOR [2, 7]: N.O; SHAKABILITY [3, 7]: Yes
